In patent US10039753B2, “Imidazo[4,5-c]quinoline and imidazo[4,5-c][1,5]naphthyridine derivatives as LRRK2 inhibitors” (Pfizer Inc., priority 2015, dated 2018):
Where a name gives a salt, the structure may show the parent alone. Read-outs that look alike come from different tables or passages of the source.

How the values were obtained:
mutant G2019S LRRK2 = mutant G2019S LRRK2 (Homo sapiens, UniProt Q5S007, G2019S); assay: LRRK2 Assay, Format 1 (Lantha Screen), G2019S mutant
Excerpt: All final concentrations of substrate ATP and enzyme were the same.

[1] = biological target: T1, GST-tagged truncated LRRK2 (Homo sapiens, UniProt Q5S007); assay: LRRK2 Assay, Format 1 (Lantha Screen), WT; type: biochemical
T1 construct: GST-tagged truncated LRRK2 from Invitrogen (Cat # PV4874); GST; purchased Invitrogen PV4874
Method: LRRK2 kinase activity was measured using Lantha Screen technology from Invitrogen. GST-tagged truncated LRRK2 from Invitrogen (Cat # PV4874) was incubated with a fluorescein-labeled peptide substrate based upon ezrin/radixin/moesin (ERM), also known as LRRKtide (Invitrogen cat # PR8976A), in the presence of a dose response of compound. Upon completion, the assay was stopped and detected with a terbium labeled anti-phospho-ERM antibody (Invitrogen, cat # PR8975A). […] Aliquots (3.5 μL) of the 100% DMSO dose response were mixed with 46.5 μL water then 1 μL of this mixture was added to the 3 μL substrate mix in the 384-well plate. The kinase reaction was started with 3 μL of a working solution of LRRK2 enzyme at a concentration of 4 μg/mL. […] The reaction was allowed to progress at room temperature for two hours and then stopped with the addition of 7 μL of detection buffer (20 mM Tris pH 7.6, 0.01% NP-40, 0.02% NaN3, 6 mM EDTA with 2 nM terbium labeled anti-phospho-ERM).

[2] = Format 1, wild-type LRRK2, geometric mean of 2-4 determinations unless footnoted (a: ≥5 determinations; b: single determination; c: determined on trifluoroacetate salt)

mutant G2019S LRRK2, sequence (Q5S007 970-2527 G2019S limits assumed): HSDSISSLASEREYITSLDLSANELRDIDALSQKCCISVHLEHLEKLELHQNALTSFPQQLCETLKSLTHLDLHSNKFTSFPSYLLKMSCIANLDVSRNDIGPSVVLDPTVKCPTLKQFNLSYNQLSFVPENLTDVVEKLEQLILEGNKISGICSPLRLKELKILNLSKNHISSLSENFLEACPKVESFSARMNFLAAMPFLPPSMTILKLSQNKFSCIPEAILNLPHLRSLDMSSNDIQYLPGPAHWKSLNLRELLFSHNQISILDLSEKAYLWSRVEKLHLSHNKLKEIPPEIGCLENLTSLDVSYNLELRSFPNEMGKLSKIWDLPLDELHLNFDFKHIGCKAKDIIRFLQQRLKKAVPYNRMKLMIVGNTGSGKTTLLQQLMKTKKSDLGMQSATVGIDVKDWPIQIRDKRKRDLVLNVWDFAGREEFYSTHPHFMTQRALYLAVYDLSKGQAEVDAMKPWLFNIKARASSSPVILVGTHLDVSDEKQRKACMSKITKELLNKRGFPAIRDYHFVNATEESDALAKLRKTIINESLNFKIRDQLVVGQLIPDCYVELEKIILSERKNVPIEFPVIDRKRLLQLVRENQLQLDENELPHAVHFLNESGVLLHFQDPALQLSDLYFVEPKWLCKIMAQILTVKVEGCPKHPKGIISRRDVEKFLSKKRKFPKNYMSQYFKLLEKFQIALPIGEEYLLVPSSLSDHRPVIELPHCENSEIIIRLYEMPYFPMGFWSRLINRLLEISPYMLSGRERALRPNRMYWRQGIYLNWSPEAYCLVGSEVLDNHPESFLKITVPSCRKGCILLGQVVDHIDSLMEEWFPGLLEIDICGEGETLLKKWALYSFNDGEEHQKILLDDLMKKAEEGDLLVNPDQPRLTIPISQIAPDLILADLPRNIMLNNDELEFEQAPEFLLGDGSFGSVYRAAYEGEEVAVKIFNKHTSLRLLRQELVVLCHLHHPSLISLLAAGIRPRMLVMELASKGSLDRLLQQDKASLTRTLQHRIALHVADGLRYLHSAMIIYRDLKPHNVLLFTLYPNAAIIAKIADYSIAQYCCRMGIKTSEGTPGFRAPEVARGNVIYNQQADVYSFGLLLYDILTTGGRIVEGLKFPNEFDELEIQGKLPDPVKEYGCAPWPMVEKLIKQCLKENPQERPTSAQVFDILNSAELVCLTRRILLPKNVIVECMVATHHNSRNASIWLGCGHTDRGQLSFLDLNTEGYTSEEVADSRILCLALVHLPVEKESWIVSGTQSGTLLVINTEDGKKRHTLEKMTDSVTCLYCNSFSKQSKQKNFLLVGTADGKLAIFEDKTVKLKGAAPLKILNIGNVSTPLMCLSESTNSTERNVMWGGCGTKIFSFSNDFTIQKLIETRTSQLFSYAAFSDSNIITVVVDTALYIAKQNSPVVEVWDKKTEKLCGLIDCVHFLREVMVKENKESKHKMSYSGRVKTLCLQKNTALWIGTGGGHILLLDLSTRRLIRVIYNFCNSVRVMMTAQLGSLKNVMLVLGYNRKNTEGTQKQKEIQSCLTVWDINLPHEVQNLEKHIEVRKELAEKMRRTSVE
T1 sequence (Q5S007 970-2527 limits assumed): as the sequence (Q5S007 970-2527 G2019S limits assumed) above, with S1050G counted along it

SMILES | IC50 (mutant G2019S LRRK2) | IC50 ([1]; 100 nM LRRKtide, 50 μM ATP, 1.7 μg/mL LRRK2 enzyme, two hours at room temperature) | IC50 [1, 2] | IC50 (mutant G2019S LRRK2; read-out: LRRK2, Format 1 G2019S IC50, Format 1, G2019S mutant LRRK2, geometric mean of 2-4 determinations unless footnoted (a: ≥5 determinations; b: single determination; c: determined on trifluoroacetate salt))
Cc1nc(Cc2nc3cnc4ccc(Cl)cc4c3n2C2CCOC(CC#N)C2)no1 (single isomer, unassigned; ent-2) [enantiomer of Example 135, [cis-4-{8-chloro-2-[(5-methyl-1,2,4-oxadiazol-3-yl)methyl]-1H-imidazo[4,5-c]quinolin-1-yl}tetrahydro-2H-pyran-2-yl]acetonitrile, ENT-2] | 1220 nM | 1450 nM |  | 
COc1ccc(Cc2nc3cnc4ccc(Cl)cc4c3n2[C@@H]2CCO[C@H](C)C2)nc1 [Example 2, 8-Chloro-2-[(5-methoxypyridin-2-yl)methyl]-1-[(2R,4R)-2-methyltetrahydro-2H-pyran-4-yl]-1H-imidazo[4,5-c]quinoline] | 5.6 nM |  | 6.8 nM | 
Cc1cc(Cc2nc3cnc4ccc(C#N)cc4c3n2[C@@H]2CCO[C@H](C)C2)no1 [Example 3, 2-[(5-Methyl-1,2-oxazol-3-yl)methyl]-1-[(2R,4R)-2-methyltetrahydro-2H-pyran-4-yl]-1H-imidazo[4,5-c]quinoline-8-carbonitrile] | 5.1 nM |  | 4.9 nM | 
Cc1nc2cnc3ccc(Br)cc3c2n1[C@H]1CC[C@@H](F)C1 [Example 6, 8-Bromo-1-[(1S,3R)-3-fluorocyclopentyl]-2-methyl-1H-imidazo[4,5-c]quinoline] | 168 nM |  | 172 nM | 
C[C@@H]1C[C@H](n2c(Cc3cn4ncsc4n3)nc3cnc4ccc(Cl)cc4c32)CCO1 [Example 8, 8-Chloro-2-(imidazo[2,1-b][1,3,4]thiadiazol-6-ylmethyl)-1-[(2R,4R)-2-methyltetrahydro-2H-pyran-4-yl]-1H-imidazo[4,5-c]quinoline] | 3.1 nM |  | 4.4 nM | 
C[C@@H]1C[C@H](n2c(CC#N)nc3cnc4ccc(Cl)cc4c32)CCO1 [Example 9, {8-Chloro-1-[(2R,4R)-2-methyltetrahydro-2H-pyran-4-yl]-1H-imidazo[4,5-c]quinolin-2-yl}acetonitrile] | 6.4 nM |  | 6.3 nM | 
C[C@@H]1C[C@H](n2c(Cc3cscn3)nc3cnc4ccc(Cl)cc4c32)CCO1 [Example 10, 8-Chloro-1-[(2R,4R)-2-methyltetrahydro-2H-pyran-4-yl]-2-(1,3-thiazol-4-ylmethyl)(4-^2H)-1H-imidazo[4,5-c]quinoline] |  |  | 5 nM | 3 nM
C[C@@H]1C[C@H](n2c(Cc3ncon3)nc3cnc4ccc(Cl)cc4c32)CCO1 [Example 13, 8-chloro-1-[(2R,4R)-2-methyltetrahydro-2H-pyran-4-yl]-2-(1,2,4-oxadiazol-3-ylmethyl)-1H-imidazo[4,5-c]quinoline] | 6.4 nM |  | 10.3 nM | 
Cc1nc2cnc3ccc(C#N)cc3c2n1C1CCOCC1 [Example 14, 2-methyl-1-(tetrahydro-2H-pyran-4-yl)-1H-imidazo[4,5-c]quinoline-8-carbonitrile] | 191 nM |  | 160 nM | 
F[C@H]1CC[C@@H](n2c(Cc3ccon3)nc3cnc4ccccc4c32)C1 [Example 16, 1-[(1R,3S)-3-fluorocyclopentyl]-2-(1,2-oxazol-3-ylmethyl)-1H-imidazo[4,5-c]quinoline] | 184 nM |  | 158 nM | 
Cc1nc2cnc3ccc(Cl)cc3c2n1C1CCOCC1 [Example 17, 8-chloro-2-methyl-1-(tetrahydro-2H-pyran-4-yl)-1H-imidazo[4,5-c]quinoline] | 132 nM |  | 125 nM | 
c1ccc2c(c1)ncc1nc(Cc3ccon3)n(C3CCOCC3)c12 [Example 18, 2-(1,2-oxazol-3-ylmethyl)-1-(tetrahydro-2H-pyran-4-yl)-1H-imidazo[4,5-c]quinoline] | 250 nM |  | 153 nM | 
Cc1nc2cnc3ccc(C#N)cc3c2n1[C@H]1CC[C@@H](F)C1 [Example 20, 1-[(1S,3R)-3-fluorocyclopentyl]-2-methyl-1H-imidazo[4,5-c]quinoline-8-carbonitrile] | 174 nM |  | 195 nM | 
C[C@@H]1C[C@H](n2c(Cc3ccon3)nc3cnc4ccc(C#N)cc4c32)CCO1 [Example 22, 1-[(2R,4R)-2-methyltetrahydro-2H-pyran-4-yl]-2-(1,2-oxazol-3-ylmethyl)-1H-imidazo[4,5-c]quinoline-8-carbonitrile] | 3.9 nM |  | 5.2 nM | 
C[C@H]1C[C@H](n2c(Cc3ccon3)nc3cnc4ccc(C#N)cc4c32)CCO1 [Example 24, 1-[(2S,4R)-2-methyltetrahydro-2H-pyran-4-yl]-2-(1,2-oxazol-3-ylmethyl)-1H-imidazo[4,5-c]quinoline-8-carbonitrile] | 62 nM |  | 72 nM | 
F[C@@H]1CC[C@H](n2c(Cc3ccon3)nc3cnc4ccc(Br)cc4c32)C1 [Example 25, 8-bromo-1-[(1S,3R)-3-fluorocyclopentyl]-2-(1,2-oxazol-3-ylmethyl)-1H-imidazo[4,5-c]quinoline, formate salt] | 30.8 nM |  | 56.3 nM | 
F[C@H]1CC[C@@H](n2c(Cn3cncn3)nc3cnc4ccccc4c32)C1 [Example 26, 1-[(1R,3S)-3-fluorocyclopentyl]-2-(1H-1,2,4-triazol-1-ylmethyl)-1H-imidazo[4,5-c]quinoline] | 155 nM |  | 162 nM | 
Cc1cn(Cc2nc3cnc4ccccc4c3n2[C@@H]2CC[C@H](F)C2)nn1 [Example 27, 1-[(1R,3S)-3-fluorocyclopentyl]-2-[(4-methyl-1H-1,2,3-triazol-1-yl)methyl]-1H-imidazo[4,5-c]quinoline, formate salt] | 118 nM |  | 188 nM | 
F[C@H]1CC[C@@H](n2c(Cc3nc4ccccc4o3)nc3cnc4ccccc4c32)C1 [Example 28, 2-(1,3-benzoxazol-2-ylmethyl)-1-[(1R,3S)-3-fluorocyclopentyl]-1H-imidazo[4,5-c]quinoline] | 157 nM |  | 153 nM | 
c1ccc2c(c1)ncc1nc(Cc3noc4ccccc34)n(C3CCOCC3)c12 [Example 29, 2-(1,2-benzoxazol-3-ylmethyl)-1-(tetrahydro-2H-pyran-4-yl)-1H-imidazo[4,5-c]quinoline] | 226 nM |  | 164 nM | 
c1ccc2c(c1)ncc1nc(Cn3cncn3)n(C3CCOCC3)c12 [Example 30, 1-(tetrahydro-2H-pyran-4-yl)-2-(1H-1,2,4-triazol-1-ylmethyl)-1H-imidazo[4,5-c]quinoline] | 146 nM |  | 120 nM | 
Cc1cn2cc(Cc3nc4cnc5ccccc5c4n3C3CCOCC3)nc2s1 [Example 31, 2-[(2-methylimidazo[2,1-b][1,3]thiazol-6-yl)methyl]-1-(tetrahydro-2H-pyran-4-yl)-1H-imidazo[4,5-c]quinoline] | 151 nM |  | 126 nM | 
Cc1cn(Cc2nc3cnc4ccccc4c3n2C2CCOCC2)nn1 [Example 32, 2-[(4-methyl-1H-1,2,3-triazol-1-yl)methyl]-1-(tetrahydro-2H-pyran-4-yl)-1H-imidazo[4,5-c]quinoline] | 121 nM |  | 98.6 nM | 
COCc1cn(Cc2nc3cnc4ccccc4c3n2C2CCOCC2)nn1 [Example 33, 2-{[4-(methoxymethyl)-1H-1,2,3-triazol-1-yl]methyl}-1-(tetrahydro-2H-pyran-4-yl)-1H-imidazo[4,5-c]quinoline] | 172 nM |  | 124 nM | 
c1ccc2oc(Cc3nc4cnc5ccccc5c4n3C3CCOCC3)nc2c1 [Example 34, 2-(1,3-benzoxazol-2-ylmethyl)-1-(tetrahydro-2H-pyran-4-yl)-1H-imidazo[4,5-c]quinoline] | 139 nM |  | 111 nM | 
c1ccc2c(c1)ncc1nc(Cn3cnnn3)n(C3CCOCC3)c12 [Example 35, 1-(tetrahydro-2H-pyran-4-yl)-2-(1H-tetrazol-1-ylmethyl)-1H-imidazo[4,5-c]quinoline] | 211 nM |  | 152 nM | 
c1ccc2c(c1)ncc1nc(Cc3cscn3)n(C3CCOCC3)c12 [Example 36, 1-(tetrahydro-2H-pyran-4-yl)-2-(1,3-thiazol-4-ylmethyl)-1H-imidazo[4,5-c]quinoline, formate salt] | 90.5 nM |  | 85.5 nM | 
COc1ccc(Cc2nc3cnc4ccccc4c3n2C2CCOCC2)nc1 [Example 37, 2-[(5-methoxypyridin-2-yl)methyl]-1-(tetrahydro-2H-pyran-4-yl)-1H-imidazo[4,5-c]quinoline] | 143 nM |  | 133 nM | 
Cc1nn2cc(Cc3nc4cnc5ccccc5c4n3C3CCOCC3)nc2s1 [Example 38, 2-[(2-methylimidazo[2,1-b][1,3,4]thiadiazol-6-yl)methyl]-1-(tetrahydro-2H-pyran-4-yl)-1H-imidazo[4,5-c]quinoline] | 41.6 nM |  | 36 nM | 
Cc1cc(Cc2nc3cnc4ccccc4c3n2C2CCOCC2)no1 [Example 39, 2-[(5-methyl-1,2-oxazol-3-yl)methyl]-1-(tetrahydro-2H-pyran-4-yl)-1H-imidazo[4,5-c]quinoline] | 157 nM |  | 103 nM | 
